For 28 compounds, T/C results are on record in PubChem BioAssay AID248 (DTP/NCI, 2004).

Molecules are shown by their SMILES. Toxic doses and inconclusive results are not listed.

The subject of the assay is L1210 leukemia ip in BDF1 mice, survival T/C. Briefly: NCI In Vivo Anticancer Drug Screen. Data for tumor model L1210 Leukemia (intraperitoneal) in B6D2F1 (BDF1) mice. The following applies: endpoint: mean survival time, higher = longer survival. The method in brief: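 Ratio derived from survival: compound-dosed mice over vehicle-dosed mice, all bearing a transplantable tumor.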

Setting [1] is: dose: 100.0 mg/kg/injection, schedule: Q01DX009 (ip), vehicle: saline with Tween-80.
The mark [2] stands for this setting: dose: 100.0 mg/kg/injection, schedule: Q04DX003 (ip), vehicle: saline with Tween-80.
Setting [3] is: dose: 200.0 mg/kg/injection, schedule: Q01DX009 (ip), vehicle: saline with Tween-80.
Setting [4] is: dose: 200.0 mg/kg/injection, schedule: Q04DX003 (ip), vehicle: saline with Tween-80.
Setting [5] is: dose: 400.0 mg/kg/injection, schedule: Q04DX003 (ip), vehicle: saline with Tween-80.
Where [6] appears, read: dose: 100.0 mg/kg/injection, schedule: Q04DX003 (ip), vehicle: Klucel (hydroxypropylcellulose) (HPC).
The mark [7] stands for this setting: dose: 200.0 mg/kg/injection, schedule: Q04DX003 (ip), vehicle: Klucel (hydroxypropylcellulose) (HPC).
Setting [8] is: dose: 400.0 mg/kg/injection, schedule: Q04DX003 (ip), vehicle: Klucel (hydroxypropylcellulose) (HPC).
[9] abbreviates: dose: 100.0 mg/kg/injection, schedule: Q04DX002 (ip), vehicle: saline.
The mark [10] stands for this setting: dose: 50.0 mg/kg/injection, schedule: Q01DX001 (ip), vehicle: saline.
[11] abbreviates: dose: 100.0 mg/kg/injection, schedule: Q01DX001 (ip), vehicle: saline.
Where [12] appears, read: dose: 200.0 mg/kg/injection, schedule: Q01DX001 (ip), vehicle: saline.
Setting [13] is: dose: 400.0 mg/kg/injection, schedule: Q01DX001 (ip), vehicle: saline.
The mark [14] stands for this setting: dose: 100.0 mg/kg/injection, schedule: Q04DX003 (ip), vehicle: saline.
The mark [15] stands for this setting: dose: 200.0 mg/kg/injection, schedule: Q04DX003 (ip), vehicle: saline.

As to `O=C(Nc1ccc(NC2=NCCN2)cc1)c1cc(Cl)cc(C(=O)Nc2ccc(NC3=NCCN3)cc2)c1`, the T/C is 100 % of control (dose: 7.5 mg/kg/injection, schedule: Q01DX010 (ip), vehicle: saline); 95 % of control (dose: 15.0 mg/kg/injection, schedule: Q01DX010 (ip), vehicle: saline); 105 % of control (dose: 15.0 mg/kg/injection, schedule: Q01DX Z (ip), vehicle: saline); 105 % of control (dose: 30.0 mg/kg/injection, schedule: Q01DX Z (ip), vehicle: saline).

For `CCCOC(=O)CSC#N`, the T/C is 106 % of control (dose: 5.0 mg/kg/injection, schedule: Q01DX001 (ip), vehicle: saline) and 100 % of control (dose: 10.0 mg/kg/injection, schedule: Q01DX001 (ip), vehicle: saline).

As for `Cn1nnn2c(-c3ccccc3)nnc12`, the T/C is, setting by setting: under setting [1], 97 % of control; under setting [2], 105 % of control; under setting [3], 105 % of control; under setting [4], 97 % of control; under setting [5], 100 % of control.

For `CCCCCOP(=O)(Cc1ccc(Cl)cc1)OCCCCC`, the T/C reads like this: under setting [6], 87 % of control; under setting [7], 90 % of control; under setting [8], 100 % of control.

For `O=C(Cl)C1C(c2ccccc2)C1c1ccccc1` (centres undefined), the T/C under setting [2] is 106 % of control.

For `O=C(CNC(=O)c1ccccc1)N/N=C/c1c(O)ccc2ccccc12`, the T/C reads like this: under setting [1], 95 % of control; under setting [3], 95 % of control; (dose: 400.0 mg/kg/injection, schedule: Q01DX009 (ip), vehicle: saline with Tween-80) 97 % of control.

Consider `CC(O)(C(=O)O)c1ccc(Cl)c(Cl)c1` (centres undefined), for which the T/C is, setting by setting: (dose: 12.5 mg/kg/injection, schedule: Q01DX009 (ip), vehicle: saline with Tween-80) 93 % of control; (dose: 25.0 mg/kg/injection, schedule: Q01DX009 (ip), vehicle: saline with Tween-80) 93 % of control; (dose: 50.0 mg/kg/injection, schedule: Q01DX009 (ip), vehicle: saline with Tween-80) 89 % of control; under setting [3], 100 % of control.

Take `C[CH2][Pb]([CH2]C)([CH2]C)[S]c1ccc(Cl)cc1`: the T/C (dose: 25.0 mg/kg/injection, schedule: Q04DX002 (sc), vehicle: olive oil, sesame oil, peanut oil) is 110 % of control and the T/C (dose: 50.0 mg/kg/injection, schedule: Q04DX002 (sc), vehicle: olive oil, sesame oil, peanut oil) was 87 % of control.

As to `CN1CC(C(=O)NO)C=C2c3cccc4[nH]cc(c34)CC21` (centres undefined), the T/C runs as follows: (dose: 50.0 mg/kg/injection, schedule: Q04DX003 (ip), vehicle: alcohol) 104 % of control; (dose: 100.0 mg/kg/injection, schedule: Q04DX003 (ip), vehicle: alcohol) 101 % of control; (dose: 200.0 mg/kg/injection, schedule: Q04DX003 (ip), vehicle: alcohol) 103 % of control.

Turning to `COc1ccc(Br)cc1`, the T/C was 96 % of control under setting [1]; 100 % of control under setting [6]; 89 % of control under setting [3]; 100 % of control under setting [7]; 103 % of control under setting [8].

With `C=C1CC[N+]2(CCCCCC)CCCC12` (centres undefined), the T/C runs as follows: (dose: 6.25 mg/kg/injection, schedule: Q01DX009 (ip), vehicle: saline) 97 % of control; (dose: 12.5 mg/kg/injection, schedule: Q01DX009 (ip), vehicle: saline) 91 % of control; (dose: 25.0 mg/kg/injection, schedule: Q01DX009 (ip), vehicle: saline) 103 % of control.

Regarding `OCC1OC(n2cnc3c(NCCNc4ncnc5c4ncn5C4OC(CO)C(O)C4O)ncnc32)C(O)C1O` (centres undefined), the T/C (dose: 50.0 mg/kg/injection, schedule: Q04DX002 (ip), vehicle: saline) was 102 % of control and the T/C under setting [9] was 110 % of control.

Turning to `c1ccc(OCCC[P+](c2ccccc2)(c2ccccc2)c2ccccc2)cc1`, the T/C under setting [10] was 100 % of control.

As for `CC(=O)CC(=O)CF.CC(=O)CC(=O)CF.[Cu]`, the T/C was 90 % of control (dose: 12.0 mg/kg/injection, schedule: Q01DX001 (ip), vehicle: saline) and 107 % of control (dose: 25.0 mg/kg/injection, schedule: Q01DX001 (ip), vehicle: saline).

Regarding `C1=CCNCC1`, the T/C under setting [11] is 101 % of control, the T/C under setting [12] was 98 % of control and the T/C under setting [13] was 103 % of control.

`ICc1nc2ccccc2[nH]1`: the T/C (dose: 9.38 mg/kg/injection, schedule: Q01DX001 (ip), vehicle: steriod suspending solution) was 95 % of control; the T/C (dose: 18.75 mg/kg/injection, schedule: Q01DX001 (ip), vehicle: steriod suspending solution) is 105 % of control; the T/C (dose: 37.5 mg/kg/injection, schedule: Q01DX001 (ip), vehicle: steriod suspending solution) was 94 % of control.

Consider `COc1ccc(C=O)cc1OC`, for which the T/C runs as follows: (dose: 100.0 mg/kg/injection, schedule: Q01DX009 (ip), vehicle: Klucel (hydroxypropylcellulose) (HPC)) 101 % of control; (dose: 200.0 mg/kg/injection, schedule: Q01DX009 (ip), vehicle: Klucel (hydroxypropylcellulose) (HPC)) 102 % of control; (dose: 400.0 mg/kg/injection, schedule: Q01DX009 (ip), vehicle: Klucel (hydroxypropylcellulose) (HPC)) 96 % of control.

For the compound `Cc1cccc(C2=N/C(=C\c3c(O)ccc4ccccc34)C2=O)c1`, the T/C is 120 % of control under setting [9]; 95 % of control (dose: 200.0 mg/kg/injection, schedule: Q04DX002 (ip), vehicle: saline); 98 % of control (dose: 400.0 mg/kg/injection, schedule: Q04DX002 (ip), vehicle: saline).

As to `CC(=O)NC(C)(S)C(=O)O` (centres undefined), the T/C is, setting by setting: under setting [11], 103 % of control; under setting [12], 96 % of control; under setting [13], 107 % of control.

Consider `O=Nn1cc(-c2cc3ccccc3n2N=O)c2ccccc21`, for which the T/C runs as follows: under setting [10], 102 % of control; under setting [11], 93 % of control; under setting [12], 96 % of control; under setting [13], 96 % of control.

On to `Cc1cc(Cl)c(Cl)cc1NC(=O)C(Br)C(Br)C(=O)O` (centres undefined), for which the T/C is, setting by setting: under setting [1], 97 % of control; under setting [3], 96 % of control.

As for `Cc1ccc(C)c(S(=O)(=O)OCC2CO2)c1` (centres undefined), the T/C was 104 % of control under setting [2], 101 % of control under setting [4] and 101 % of control under setting [5].

Turning to `CC1(C)CCC(=NO)CC1`, the T/C is, setting by setting: (dose: 75.0 mg/kg/injection, schedule: Q01DX001 (ip), vehicle: other) 103 % of control; (dose: 150.0 mg/kg/injection, schedule: Q01DX001 (ip), vehicle: other) 97 % of control.

Take `CCC1(Sc2ncnc3c2ncn3C2OC(CO)C(O)C2O)C(=O)NC(=O)NC1=O` (centres undefined): the T/C is 114 % of control under setting [11], 111 % of control under setting [12] and 120 % of control under setting [13].

Consider `Cc1c([N+](=O)[O-])cc(C(C)(C)C)c(OC(=S)N(C)C)c1[N+](=O)[O-]`, for which the T/C runs as follows: (dose: 25.0 mg/kg/injection, schedule: Q04DX002 (ip), vehicle: saline with Tween-80) 105 % of control; (dose: 100.0 mg/kg/injection, schedule: Q04DX002 (ip), vehicle: saline with Tween-80) 86 % of control.

Consider `O=C(CC1C(=O)Nc2ccccc21)c1ccccc1` (centres undefined), for which the T/C is 91 % of control (dose: 100.0 mg/kg/injection, schedule: Q04DX002 (ip), vehicle: Klucel (hydroxypropylcellulose) (HPC)); 105 % of control (dose: 200.0 mg/kg/injection, schedule: Q04DX002 (ip), vehicle: Klucel (hydroxypropylcellulose) (HPC)); 91 % of control (dose: 400.0 mg/kg/injection, schedule: Q04DX002 (ip), vehicle: Klucel (hydroxypropylcellulose) (HPC)).

Take `CCCCCCCCCCCC(CCCCCCCC)CCCCCCCC`: the T/C reads like this: under setting [14], 94 % of control; under setting [15], 93 % of control; (dose: 400.0 mg/kg/injection, schedule: Q04DX003 (ip), vehicle: saline) 100 % of control.

For `C[n+]1ccccc1C(=O)O` (tested in a mixture with another compound), the T/C under setting [14] was 101 % of control and the T/C under setting [15] was 98 % of control.
